The source of these data is patent publication US20260001922A1, “PEPTIDES TARGETING SODIUM CHANNELS TO TREAT PAIN” (priority 2022, published 2026).

For one data set, the target named is human Nav1.7 (Homo sapiens, UniProt Q15858). Description: cell-based. To be noted: for IC50: whole-cell voltage clamp, HEK 293 cells, read-out: hNav1.7 IC50. Here is the method:
HEK-293 cells stably expressing human Nav1.1, Nav1.4, Nav1.5, Nav1.6 and Nav1.7 were obtained from Dr. Chris Lossin. Rat Nav1.3 expressing HEK-293 cells were from Dr. Steven Waxman (Yale University, New Haven, CT). These cell lines were cultured in complete DMEM supplemented with 10% FBS, 1% penicillin/streptomycin, and G418. The human Nav1.8 channel (co-expressing with human Navβ1 and Navβ2 subunits) and the Nav1.9 channel (co-expressing with human Trkb, Navβ1, and Navβ2 subunits) were obtained from Icagen (Durham, NC). hNav1.8 cells cultured with G418 (0.4 mg/mL) and puromycin ([…]/mL) and hNav1.9 cells were cultured with G418 (0.4 mg/mL), puromycin ([…]), and zeocin (0.05 mg/mL). Human Nav1.2 were expressed transiently by transfection of the hNav1.2 cDNA (from Dr. Alan L. Goldin, UC Irvine, CA) into HEK-293 cells.
Whole-cell patch-clamp experiments on recombinant channels were conducted manually at room temperature (22-24° C.) using an EPC-10 amplifier (HEKA Electronik, Lambrecht/Pfalz, Germany). Cells were trypsinized and plated onto poly-1-lysine-coated coverslips. All recordings were done in normal Ringer external bath solution containing (in mM) 160 NaCl, 4.5 KCl, 2 CaCl2), 1 MgCl2, 10 HEPES (pH 7.4 and 305 mOsm) as. Patch pipettes were pulled from soda lime glass (micro-hematocrit tubes, Kimble Chase, Rochester, NY) and had resistances of 2-3 MQ when filled with CsF-based internal solution containing (in mM) 10 NaF, 110 CsF, 20 CsCl, 10 HEPES, 2 EGTA, (pH 7.4, 310 mOsm). Data acquisition and analysis were performed with Pulse-PulseFit (HEKA Electronik GmbH, Germany), IgorPro (WaveMetrics, Portland, OR), and Origin 9.0 software (OriginLab Corporation, Northampton, MA). Cells were held at −90 mV and voltage stepped to −120 mV for 200 ms before depolarizing to −10 mV for 50 msec to elicit inward currents. Control test currents were monitored for 5-10 min to ensure that the amplitude and kinetics of the response were stable. Series resistance was compensated to 80-90% and linear leak currents and capacitance artefacts were corrected using a P/4 subtraction method. Pulse interval was 0.1 Hz and peptides were applied to individual cells using a glass transfer pipette directly into the recording bath. For measuring inhibition, currents were allowed to saturate with repeated pulsing before addition of subsequent doses. IC50 values were derived from measurements performed on individual cells that were tested with at least three or more concentrations of each peptide.

The target in another data set is T1, human Nav1.2 (Homo sapiens, UniProt Q99250).
T1 construct: host or cells: HEK-293 (transient)
Description: cell-based. To be noted: HEK293, read-out: block of hNav1.2 current (% inhibition).

A further data set concerns the target human Nav1.4 (Homo sapiens, UniProt P35499). Description: cell-based. To be noted: HEK293, read-out: block of hNav1.4 current (% inhibition).
A further data set deals with human Nav1.5 (Homo sapiens, UniProt Q14524). Description: in vitro. It counts as cell-based. Particulars: pH 7.4, read-out: block of hNav1.5 current (% inhibition).
Chain of human Nav1.5 (Q14524 whole entry): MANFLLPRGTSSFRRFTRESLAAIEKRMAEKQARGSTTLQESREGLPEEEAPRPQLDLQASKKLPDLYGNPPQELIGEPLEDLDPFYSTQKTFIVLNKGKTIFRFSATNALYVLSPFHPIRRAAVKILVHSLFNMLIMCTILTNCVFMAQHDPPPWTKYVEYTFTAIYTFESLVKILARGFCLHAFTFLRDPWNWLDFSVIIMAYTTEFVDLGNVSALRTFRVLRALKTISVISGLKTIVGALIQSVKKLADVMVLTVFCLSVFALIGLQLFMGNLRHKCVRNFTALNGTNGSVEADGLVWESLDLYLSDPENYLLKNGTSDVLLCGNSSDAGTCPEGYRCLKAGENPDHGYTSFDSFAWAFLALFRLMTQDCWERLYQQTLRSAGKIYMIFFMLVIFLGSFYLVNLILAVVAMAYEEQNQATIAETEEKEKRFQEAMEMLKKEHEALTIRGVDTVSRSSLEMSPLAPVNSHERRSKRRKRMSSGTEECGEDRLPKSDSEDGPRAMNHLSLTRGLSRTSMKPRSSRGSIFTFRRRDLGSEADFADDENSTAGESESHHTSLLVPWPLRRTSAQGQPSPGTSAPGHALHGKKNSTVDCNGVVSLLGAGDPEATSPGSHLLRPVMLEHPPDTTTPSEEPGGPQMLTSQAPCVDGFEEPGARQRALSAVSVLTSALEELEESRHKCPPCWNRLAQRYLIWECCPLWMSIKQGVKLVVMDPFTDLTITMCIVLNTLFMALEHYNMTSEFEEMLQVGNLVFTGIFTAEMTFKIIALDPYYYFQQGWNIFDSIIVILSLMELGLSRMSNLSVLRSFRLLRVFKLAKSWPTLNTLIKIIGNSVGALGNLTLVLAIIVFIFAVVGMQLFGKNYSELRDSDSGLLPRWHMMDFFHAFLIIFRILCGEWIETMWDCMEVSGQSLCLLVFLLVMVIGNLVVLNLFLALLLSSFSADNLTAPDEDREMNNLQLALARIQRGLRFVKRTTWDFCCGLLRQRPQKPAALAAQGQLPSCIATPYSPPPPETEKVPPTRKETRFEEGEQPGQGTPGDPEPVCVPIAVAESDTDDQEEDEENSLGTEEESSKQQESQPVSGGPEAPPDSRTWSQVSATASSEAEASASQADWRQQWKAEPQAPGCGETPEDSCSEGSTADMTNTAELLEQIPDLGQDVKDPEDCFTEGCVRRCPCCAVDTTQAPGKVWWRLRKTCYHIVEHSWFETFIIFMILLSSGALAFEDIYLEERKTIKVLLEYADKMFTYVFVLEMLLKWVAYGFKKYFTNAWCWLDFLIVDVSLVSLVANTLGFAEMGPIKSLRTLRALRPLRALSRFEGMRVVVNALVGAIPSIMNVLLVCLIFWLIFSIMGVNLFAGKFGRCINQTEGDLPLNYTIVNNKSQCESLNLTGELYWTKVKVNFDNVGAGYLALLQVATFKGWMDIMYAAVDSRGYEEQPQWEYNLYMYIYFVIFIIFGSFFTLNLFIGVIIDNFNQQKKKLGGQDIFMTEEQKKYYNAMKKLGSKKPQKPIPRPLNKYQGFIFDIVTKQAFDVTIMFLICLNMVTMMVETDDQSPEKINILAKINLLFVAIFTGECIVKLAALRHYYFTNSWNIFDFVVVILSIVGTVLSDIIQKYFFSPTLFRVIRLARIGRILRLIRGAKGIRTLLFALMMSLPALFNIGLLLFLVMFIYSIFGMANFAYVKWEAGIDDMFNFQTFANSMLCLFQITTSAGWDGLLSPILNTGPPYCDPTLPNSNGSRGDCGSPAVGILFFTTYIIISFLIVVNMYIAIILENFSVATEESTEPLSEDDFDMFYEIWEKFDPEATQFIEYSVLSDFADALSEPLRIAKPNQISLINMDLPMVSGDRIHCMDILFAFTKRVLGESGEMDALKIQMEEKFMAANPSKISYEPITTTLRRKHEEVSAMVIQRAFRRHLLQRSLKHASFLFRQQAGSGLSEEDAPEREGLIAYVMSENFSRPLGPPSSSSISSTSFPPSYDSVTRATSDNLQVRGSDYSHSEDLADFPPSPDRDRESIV
The subject of data set [1] is rat models of thermal and chemical nociception. On the set-up: motor effect via intrathecal administration: dose or concentration left out as unconfirmed. To be noted: cited from earlier work.
A further data set concerns the target hNav1.7 (Homo sapiens, UniProt Q15858). To be noted: peptides of the literature; cited from earlier work.

Positions of bridges follow the written chain, without caps; N, C: chain ends. Non-standard residues stand in square brackets, D forms with d. Residues, ends and D or L forms follow the SMILES beside them. Agb = N=C(N)NCC[C@H](N)C(=O)O

Chain of human Nav1.7 (Q15858 whole entry): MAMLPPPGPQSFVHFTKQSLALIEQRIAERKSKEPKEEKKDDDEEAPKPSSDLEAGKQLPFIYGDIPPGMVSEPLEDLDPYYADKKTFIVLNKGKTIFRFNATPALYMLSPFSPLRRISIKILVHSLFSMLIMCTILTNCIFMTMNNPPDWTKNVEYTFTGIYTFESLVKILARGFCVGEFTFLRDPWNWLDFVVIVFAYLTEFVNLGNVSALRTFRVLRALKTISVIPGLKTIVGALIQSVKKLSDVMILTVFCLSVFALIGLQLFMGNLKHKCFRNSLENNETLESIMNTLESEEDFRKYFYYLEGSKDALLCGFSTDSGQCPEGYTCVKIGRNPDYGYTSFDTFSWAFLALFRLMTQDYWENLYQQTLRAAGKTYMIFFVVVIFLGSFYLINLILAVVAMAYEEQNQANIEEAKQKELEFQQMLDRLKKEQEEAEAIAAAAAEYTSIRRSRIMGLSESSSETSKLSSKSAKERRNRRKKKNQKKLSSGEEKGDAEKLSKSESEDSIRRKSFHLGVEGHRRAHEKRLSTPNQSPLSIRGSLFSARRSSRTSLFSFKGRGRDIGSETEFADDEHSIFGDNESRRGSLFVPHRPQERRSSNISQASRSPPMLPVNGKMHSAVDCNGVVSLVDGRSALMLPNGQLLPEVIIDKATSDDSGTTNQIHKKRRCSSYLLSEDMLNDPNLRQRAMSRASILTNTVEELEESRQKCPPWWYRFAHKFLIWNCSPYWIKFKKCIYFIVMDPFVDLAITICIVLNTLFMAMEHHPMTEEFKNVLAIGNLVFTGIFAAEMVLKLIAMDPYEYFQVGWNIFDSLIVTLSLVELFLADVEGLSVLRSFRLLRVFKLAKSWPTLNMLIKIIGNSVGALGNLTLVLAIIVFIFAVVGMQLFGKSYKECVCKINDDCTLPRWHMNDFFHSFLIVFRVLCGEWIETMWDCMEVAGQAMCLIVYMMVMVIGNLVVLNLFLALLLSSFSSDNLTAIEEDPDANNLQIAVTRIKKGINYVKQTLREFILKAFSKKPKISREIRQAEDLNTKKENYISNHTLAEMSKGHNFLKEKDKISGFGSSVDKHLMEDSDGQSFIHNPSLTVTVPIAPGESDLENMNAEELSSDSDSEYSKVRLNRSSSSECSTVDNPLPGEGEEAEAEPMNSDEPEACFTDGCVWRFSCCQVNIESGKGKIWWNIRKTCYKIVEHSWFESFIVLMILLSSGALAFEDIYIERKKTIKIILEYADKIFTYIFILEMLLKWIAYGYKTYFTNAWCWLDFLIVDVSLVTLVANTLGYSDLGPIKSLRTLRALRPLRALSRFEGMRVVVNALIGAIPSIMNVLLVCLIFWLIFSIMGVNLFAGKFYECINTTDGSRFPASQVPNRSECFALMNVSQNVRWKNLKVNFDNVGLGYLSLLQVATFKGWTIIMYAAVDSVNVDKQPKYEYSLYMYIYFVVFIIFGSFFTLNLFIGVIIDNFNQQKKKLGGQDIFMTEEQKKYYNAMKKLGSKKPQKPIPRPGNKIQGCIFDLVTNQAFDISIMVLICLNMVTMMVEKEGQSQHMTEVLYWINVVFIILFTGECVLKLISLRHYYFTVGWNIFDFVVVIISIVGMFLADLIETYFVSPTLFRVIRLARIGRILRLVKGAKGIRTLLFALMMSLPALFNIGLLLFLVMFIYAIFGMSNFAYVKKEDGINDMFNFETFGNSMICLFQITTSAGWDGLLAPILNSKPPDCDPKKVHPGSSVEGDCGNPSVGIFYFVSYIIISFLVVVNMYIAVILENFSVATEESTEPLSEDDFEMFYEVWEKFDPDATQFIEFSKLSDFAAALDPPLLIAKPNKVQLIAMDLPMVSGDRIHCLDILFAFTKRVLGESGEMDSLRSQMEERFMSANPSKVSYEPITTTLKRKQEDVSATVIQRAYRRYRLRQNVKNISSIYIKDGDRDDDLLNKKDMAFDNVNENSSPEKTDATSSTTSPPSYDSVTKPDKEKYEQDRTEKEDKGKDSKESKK
Chain of hNav1.7 (Q15858 whole entry): as above

Turning to `CC(C)C[C@@H]1NC(=O)CNC(=O)[C@H](CCC(=O)O)NC(=O)[C@@H]2CSSC[C@H](NC(=O)[C@@H](N)Cc3ccc(O)cc3)C(=O)N[C@@H](CCC(N)=O)C(=O)N[C@@H](CCCCN)C(=O)N[C@@H](C)C(=O)N[C@@H](Cc3ccccc3)C(=O)N[C@@H](Cc3c[nH]c4ccccc34)C(=O)N[C@@H]([C@@H](C)O)C(=O)N[C@H]3CSSC[C@H](NC(=O)[C@H](CCCNC(=N)N)NC1=O)C(=O)N[C@@H](CCNC(=N)N)C(=O)N[C@@H](CC(C)C)C(=O)N[C@@H](Cc1c[nH]c4ccccc14)C(=O)N[C@H](C(=O)N[C@@H](CCCCN)C(=O)N[C@@H](CCCCN)C(=O)N[C@@H](CCC(=O)O)C(=O)N[C@@H](CC(C)C)C(=O)N[C@@H](Cc1c[nH]c4ccccc14)C(N)=O)CSSC[C@H](NC(=O)[C@H](CCCCN)NC(=O)[C@H](CCCNC(=N)N)NC(=O)[C@H](CCC(=O)O)NC(=O)[C@H](CO)NC(=O)[C@H](CC(=O)O)NC3=O)C(=O)N2` [PTx2-2954], on human Nav1.7 (at 5 μM), the “effect on hNav1.7 currents” value is on record as “no effect”.

Consider `CC(C)C[C@@H]1NC(=O)CNC(=O)[C@H](CCC(=O)O)NC(=O)[C@@H]2CSSC[C@H](NC(=O)[C@@H](N)Cc3ccc(O)cc3)C(=O)N[C@@H](CCC(N)=O)C(=O)N[C@@H](CCCCN)C(=O)N[C@@H](C)C(=O)N[C@@H](Cc3ccccc3)C(=O)N[C@@H](Cc3c[nH]c4ccccc34)C(=O)N[C@@H]([C@@H](C)O)C(=O)N[C@H]3CSSC[C@H](NC(=O)[C@H](CCCNC(=N)N)NC1=O)C(=O)N[C@@H](CCNC(=N)N)C(=O)N[C@@H](CC(C)C)C(=O)N[C@@H](Cc1c[nH]c4ccccc14)C(=O)N[C@H](C(=O)N[C@@H](CCCNC(=N)N)C(=O)N[C@@H](CCCCN)C(=O)N[C@@H](CCC(=O)O)C(=O)N[C@@H](CC(C)C)C(=O)N[C@@H](Cc1c[nH]c4ccccc14)C(N)=O)CSSC[C@H](NC(=O)[C@H](CCCCN)NC(=O)[C@H](CCCNC(=N)N)NC(=O)[C@H](CCC(=O)O)NC(=O)[C@H](CO)NC(=O)[C@H](CC(=O)O)NC3=O)C(=O)N2` [PTx2-2955], for which the IC50 (in general, the concentration at which inhibition is half-maximal) at human Nav1.7 amounted to 185 nM.

Take `CC(C)C[C@@H]1NC(=O)CNC(=O)[C@H](CCC(=O)O)NC(=O)[C@@H]2CSSC[C@H](NC(=O)[C@@H](N)Cc3ccc(O)cc3)C(=O)N[C@@H](CCC(N)=O)C(=O)N[C@@H](CCCCN)C(=O)N[C@@H](C)C(=O)N[C@@H](Cc3ccccc3)C(=O)N[C@@H](Cc3c[nH]c4ccccc34)C(=O)N[C@@H]([C@@H](C)O)C(=O)N[C@H]3CSSC[C@H](NC(=O)[C@H](CCCNC(=N)N)NC1=O)C(=O)N[C@@H](CCNC(=N)N)C(=O)N[C@@H](CC(C)C)C(=O)N[C@@H](Cc1c[nH]c4ccccc14)C(=O)N[C@H](C(=O)N[C@@H](CCCNC(=N)N)C(=O)N[C@@H](CCCCN)C(=O)N[C@@H](CCC(=O)O)C(=O)N[C@@H](CC(C)C)C(=O)N[C@@H](Cc1c[nH]c4ccccc14)C(N)=O)CSSC[C@H](NC(=O)[C@H](CCCCN)NC(=O)[C@H](CCCNC(=N)N)NC(=O)[C@H](C)NC(=O)[C@H](CO)NC(=O)[C@H](CC(=O)O)NC3=O)C(=O)N2` [PTx2-3063] (H-YCQKAFWTCDSARKCCEGLRC[Agb]LWCRKELW-NH2; disulfide 2-16, 9-21, 15-25): the IC50 on human Nav1.7 is 154 nM.

`CC(C)C[C@@H]1NC(=O)CNC(=O)[C@H](CCC(=O)O)NC(=O)[C@@H]2CSSC[C@H](NC(=O)[C@@H](N)Cc3ccc(O)cc3)C(=O)N[C@@H](CCC(N)=O)C(=O)N[C@@H](CCCCN)C(=O)N[C@@H](C)C(=O)N[C@@H](Cc3ccccc3)C(=O)N[C@@H](Cc3c[nH]c4ccccc34)C(=O)N[C@@H]([C@@H](C)O)C(=O)N[C@H]3CSSC[C@H](NC(=O)[C@H](CCCNC(=N)N)NC1=O)C(=O)N[C@@H](CCCNC(=N)N)C(=O)N[C@@H](CC(C)C)C(=O)N[C@@H](Cc1c[nH]c4ccccc14)C(=O)N[C@H](C(=O)N[C@@H](CCCNC(=N)N)C(=O)N[C@@H](CCCCN)C(=O)N[C@@H](CCC(=O)O)C(=O)N[C@@H](CC(C)C)C(=O)N[C@@H](Cc1c[nH]c4ccccc14)C(N)=O)CSSC[C@H](NC(=O)[C@H](CCCCN)NC(=O)[C@H](CCCNC(=N)N)NC(=O)[C@H](C)NC(=O)[C@H](CO)NC(=O)[C@H](CC(=O)O)NC3=O)C(=O)N2` [PTx2-3064] (H-YCQKAFWTCDSARKCCEGLRCRLWCRKELW-NH2; disulfide 2-16, 9-21, 15-25): the inhibition (in general, the change of the read-out against control, counted positive when it falls) at 10 µM at human Nav1.2 was roughly 92%; on human Nav1.4 it was roughly 66%; on human Nav1.5, roughly 25%.

For the compound `CSCC[C@@H]1NC(=O)[C@H](Cc2c[nH]c3ccccc23)NC(=O)[C@H](CCCCN)NC(=O)[C@H](CCC(N)=O)NC(=O)[C@@H](NC(=O)[C@@H](N)Cc2ccc(O)cc2)CSSC[C@@H]2NC(=O)[C@@H]3CSSC[C@@H](C(=O)N[C@@H](CCCNC(=N)N)C(=O)N[C@@H](CCCCN)C(=O)N[C@@H](CCC(=O)O)C(=O)N[C@@H](CC(C)C)C(=O)N[C@@H](CC(C)C)C(N)=O)NC(=O)[C@H](Cc4c[nH]c5ccccc45)NC(=O)[C@H](CC(C)C)NC(=O)[C@H](CCCNC(=N)N)NC(=O)[C@H](CSSC[C@H](NC(=O)[C@H]([C@@H](C)O)NC(=O)[C@H](CCC(N)=O)NC1=O)C(=O)N[C@@H](CC(=O)O)C(=O)N[C@@H](CCCCN)C(=O)N[C@@H](CC(=O)O)C(=O)N[C@@H](CCCNC(=N)N)C(=O)N[C@@H](CCCCN)C(=O)N3)NC(=O)[C@H](CCCNC(=N)N)NC(=O)[C@H](CC(C)C)NC(=O)CNC(=O)[C@H](CCC(=O)O)NC2=O` [PTx2-3066] (H-YCQKWMQTCDKDRKCCEGLRCRLWCRKELL-NH2; disulfide 2-16, 9-21, 15-25), the inhibition at 10 µM on human Nav1.2 was roughly 41%; at human Nav1.4 it was roughly 34%; on human Nav1.5 it was roughly 1%. On human Nav1.7, the IC50 was 30.8 nM.

Regarding `CSCC[C@@H]1NC(=O)CNC(=O)[C@H](CCC(=O)O)NC(=O)[C@@H]2CSSC[C@H](NC(=O)[C@@H](N)Cc3ccc(O)cc3)C(=O)N[C@@H](CCC(N)=O)C(=O)N[C@@H](CCCCN)C(=O)N[C@@H](Cc3c[nH]c4ccccc34)C(=O)N[C@@H](CCSC)C(=O)N[C@@H](Cc3c[nH]c4ccccc34)C(=O)N[C@@H]([C@@H](C)O)C(=O)N[C@H]3CSSC[C@H](NC(=O)[C@H](C(C)C)NC1=O)C(=O)N[C@@H](CCCNC(=N)N)C(=O)N[C@@H](CC(C)C)C(=O)N[C@@H](Cc1c[nH]c4ccccc14)C(=O)N[C@H](C(=O)N[C@@H](CCCCN)C(=O)N[C@@H](CCCCN)C(=O)N[C@@H](CCCCN)C(=O)N[C@@H](CC(C)C)C(=O)N[C@@H](Cc1c[nH]c4ccccc14)C(=O)O)CSSC[C@H](NC(=O)[C@H](CCCCN)NC(=O)[C@H](CCCNC(=N)N)NC(=O)[C@H](CCC(=O)O)NC(=O)[C@H](CO)NC(=O)[C@H](CC(=O)O)NC3=O)C(=O)N2` [ProTx-II], the “effect on nociceptive assays” value in data set [1] (0.24 μg i.t., Merck's study) is listed as “no effect”. In data set [1] (Merck's study), the “motor effect via intrathecal administration” value is given as “laming effect”. The maximum tolerated dose in data set [1] (in 10 μL, rats, Janssen's study) is 2 µg. Further, the “analgesic effect following intrathecal injection” value in data set [1] (rat models of thermal and chemical nociception, Janssen Biotech) is reported as “strong analgesic effect”.

As for “DCLKFGWKCNPRNDKCCSGLKSGSNHNWCKLHL [ProTx-III]”, the IC50 on hNav1.7 is 11.5 nM.

As for ECQKWMWTCDSARACCEGLRCKLWCRKII [JzTx-V], the IC50 at hNav1.7 was 0.6 nM.
